# Data from the supplement of paper PMC10307832.
# How the values were obtained:
# Assay in all cases: relative viability (nuclei count vs DMSO), 5 days (fraction); higher = more cells survive
# Nelarabine + Pemetrexed = compound: COc1nc(N)nc2c1ncn2[C@@H]1O[C@H](CO)[C@@H](O)[C@@H]1O [Nelarabine] + Nc1nc2[nH]cc(CCc3ccc(C(=O)N[C@@H](CCC(=O)O)C(=O)O)cc3)c2c(=O)[nH]1 [Pemetrexed] (partner 0.2 µM)
# Method in brief: (§1)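 Lung cancer cell lines in 1536-well plates got either a single drug or a fixed anchor-drug dose together with five library-drug doses (not always all listed) in √10 steps, by pin tool, on the day after seeding. Nuclei were counted after 5 days, and relative viability is the treated-to-vehicle ratio of nuclei counts. Values are medians of duplicate plates.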
# Adavosertib + Alpelisib = compound: C=CCn1c(=O)c2cnc(Nc3ccc(N4CCN(C)CC4)cc3)nc2n1-c1cccc(C(C)(C)O)n1 [Adavosertib] + Cc1nc(NC(=O)N2CCC[C@H]2C(N)=O)sc1-c1ccnc(C(C)(C)C(F)(F)F)c1 [Alpelisib] (partner 2 µM)
# Method in brief: as §1
# Nelarabine = compound: COc1nc(N)nc2c1ncn2[C@@H]1O[C@H](CO)[C@@H](O)[C@@H]1O [Nelarabine]
# Method in brief: (§2)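 Viability was read as treated-well nuclei divided by vehicle-well nuclei, using the median across plates. Lung cancer cell lines in 1536-well plates were kept overnight at 37 °C, pinned with five √10-spaced library-drug doses, and after 5 days were Hoechst-stained, imaged at 4× and counted in MetaXpress. Plates passed only with control CV below 25% and at least one doubling.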
# Adavosertib = compound: C=CCn1c(=O)c2cnc(Nc3ccc(N4CCN(C)CC4)cc3)nc2n1-c1cccc(C(C)(C)O)n1 [Adavosertib]
# Method in brief: as §2
Cell Line,relative viability (Nelarabine + Pemetrexed; first compound 0.01 µM),relative viability (Nelarabine + Pemetrexed; first compound 0.03162 µM),relative viability (Nelarabine + Pemetrexed; first compound 0.1 µM),relative viability (Nelarabine + Pemetrexed; first compound 0.3162 µM),relative viability (Nelarabine + Pemetrexed; first compound 1 µM),relative viability (Adavosertib + Alpelisib; first compound 0.01 µM),relative viability (Adavosertib + Alpelisib; first compound 0.03162 µM),relative viability (Adavosertib + Alpelisib; first compound 0.1 µM),relative viability (Adavosertib + Alpelisib; first compound 0.3162 µM),relative viability (Nelarabine; 0.01 µM),relative viability (Nelarabine; 0.03162 µM),relative viability (Nelarabine; 0.1 µM),relative viability (Nelarabine; 0.3162 µM),relative viability (Nelarabine; 1 µM),relative viability (Adavosertib; 0.01 µM),relative viability (Adavosertib; 0.03162 µM),relative viability (Adavosertib; 0.1 µM),relative viability (Adavosertib; 0.3162 µM)
NCI-H2009,1.09,1.05,1.07,1.08,1.11,1.13,1.22,1.13,1.17,1.23,1.07,1,1.02,1.03,1.02,1.01,1.07,1.02
NCI-H2023,0.353,0.365,0.268,0.244,0.228,0.512,0.602,0.548,0.39,1.48,1.05,0.97,1.02,0.851,0.892,0.87,0.752,0.451
NCI-H2085,0.906,0.865,0.93,0.871,0.87,1.02,0.993,0.969,0.975,1,1.04,0.963,0.995,0.958,0.991,1.01,1,1.03
NCI-H2087,0.782,0.67,0.723,0.7,0.717,1.11,1.07,1.2,0.944,1.1,0.981,1.05,1.22,0.881,0.968,0.95,1.08,1.13
NCI-H2126,0.879,0.757,0.692,0.765,0.807,0.75,0.767,0.675,0.752,1.08,0.952,0.961,1.03,0.988,1.01,1.04,0.969,1.07
NCI-H2170,0.269,0.262,0.228,0.318,0.303,0.849,0.804,0.678,0.705,1.16,0.912,0.956,1.07,1,1.03,0.959,0.888,0.819
NCI-H2228,0.342,0.346,0.269,0.374,0.4,0.839,0.694,0.829,0.343,1.17,0.991,–,1.35,0.948,0.994,0.996,0.946,0.616
NCI-H2347,0.423,0.425,0.427,0.447,0.397,1.06,1.02,1.04,0.975,1.13,0.904,1.04,1.02,1.01,1.06,1.05,1.09,0.983
NCI-H2405,0.939,1.11,1.09,1.16,1.01,0.765,0.878,0.874,0.764,1.07,1.02,0.924,0.982,0.947,0.924,0.993,1.02,1.04
